Each structure is given as a SMILES string.

This is an account of results in patent US4652561A, “Naphtho[1,2-b]-1,4-thiazepinones” (Hoffmann-La Roche Inc., priority 1986, dated 1987).

For one test, the system named is Guinea Pig Ileum. The experiment in a line: Guinea pig ileum assay - tonic contraction (calcium channel blocking activity). As to conditions: inhibition of K^+ (80 mM) induced tonic contraction, 37° C. On the procedure: GUINEA PIG ILEUM ASSAY--TONIC CONTRACTION
Male guinea-pigs weighing from 300-400 grams were stunned and bled. The abdomen was opened and 10-15 cm of terminal ileum was carefully removed and cleaned and placed in Tyrode's Solution of the following composition: NaCl (8 g/l), KCl (0.2 g/l), MgCl2 (0.2 g/l.). CaCl2 (0.2 g/l). NaH2 PO4 (0.05 g/l), NaHCO3 (1.0 g/l) and Glucose (1 g/l). The solution was maintained at 37° C. and gassed with 95%O2 and 5%CO2. Portions of the ileum were placed over a glass rod, a shallow incision was made the length of the mesenteric attachment just severing the outer-longitudinal muscle layer. The longitudinal muscle was separated from the underlying circular muscle by gentle dissection (Rang, H. P. Annals of N.Y. Academy of Science Vol. 144, page 756, (1964)). The tissue was fixed at one end to a tissue holder, the other end was connected by a thread to a force transducer and suspended in a muscle bath containing Tyrode's Solution maintained at 37° C. and gassed with 95%O2 and 5%CO2. An initial tension of 500 mg was applied and the tissue allowed to equilibrate for 60 minutes prior to the start of the study. During this period the tissue was washed every 16 minutes. Each preparation, at 16 minute intervals, was challenged with KCl sufficient to yield a bath K^+ concentration of 80 mMK for 2 minutes, then washed with fresh solution. The 16 minute interval between K^+ challenges was maintained throughout the study. Upon stabilization of the responses to the K^+ challenge the test compound (potential calcium entry antagonist) was introduced into the bath 2 minutes prior to and during the 2 minute exposure to K^+ after which the bath was cleared and washed with fresh solution. Logarithmically increasing doses (up to 10^-4 M) of the potential antagonist were administered as the study progressed.
The measure of compound's ability to inhibit the tonic contraction of muscle is a measure of its activity as a calcium channel blocking agent.

The next test has as its system SH rat. The experiment in a line: Blood pressure lowering in the spontaneously hypertensive (SH) rat. Conditions: 50 mg/kg p.o.; for Duration: duration of SBP lowering. The format is in vivo. The procedure: BLOOD PRESSURE LOWERING IN THE SPONTANEOUSLY HYPERTENSIVE (SH) RAT
Six male SH rats were used for each test. Body weights were recorded. Six pre-drug control recordings of the systolic blood pressure (mmHg) were measured from the tails of the rats which were unanesthetized and restrained in holders. The rats were previously heated for 5-10 minutes at 32°-34° C. The systolic blood pressure was measured by an occlusion cuff.
The compounds were administered orally to the rats in a composition that included 5% compound and the remainder gum acacia. The blood pressure of the rats was measured over a period of hours following oral administration.
The measure of a compound's ability to decrease blood pressure, is a measure of its ability as an anti-hypertensive agent.

For `COc1ccc([C@@H]2Sc3c(ccc4ccccc34)N(CCN(C)C)C(=O)[C@@H]2O)cc1` (racemic) [C, (±)-cis-5-[2-(dimethylamino)ethyl]-2,3-dihydro-3-hydroxy-2-(4-methoxyphenyl)naphtho[1,2-b]-1,4-thiazepin-4(5H)-one], in the test with Guinea Pig Ileum, the IC50 came to 0.52 µM.

Regarding `COc1ccc([C@@H]2Sc3c(ccc4ccccc34)N(CCN(C)C)C(=O)[C@@H]2OC(C)=O)cc1` (racemic) [D, (±)-cis-3-(acetyloxy)-2,3-dihydro-2-(4-methoxyphenyl)-5-[2-(dimethylamino)ethyl]naphtho[1,2-b]-1,4-thiazepin-4(5H)-one], the IC50 with Guinea Pig Ileum was determined as 0.23 µM.

`COc1ccc([C@@H]2Sc3c(ccc4ccccc34)N(CCN(C)C)C(=O)[C@H]2O)cc1` (racemic) [G, (±)-trans-2,3-dihydro-3-hydroxy-2-(4-methoxyphenyl)-5-[2-(dimethylamino)ethyl]naphtho[1,2-b]-1,4-thiazepin-4(5H)-one]: the IC50 in the test on Guinea Pig Ileum amounted to 63 µM.

For `COc1ccc([C@@H]2Sc3c(ccc4ccccc34)N(CCN(C)C)C(=O)[C@H]2OC(C)=O)cc1` (racemic) [H, (±)-trans-3-(acetyloxy)-2,3-dihydro-2-(4-methoxyphenyl)-5-[2-(dimethylamino)ethyl]naphtho[1,2-b]-1,4-thiazepin-4(5H)-one], the IC50 in the test with Guinea Pig Ileum is 46 µM.

As for `COc1ccc([C@@H]2Sc3c(ccc4ccccc34)N(CCN(C)C)C(=O)[C@@H]2OC(C)=O)cc1` [A, (+)-cis-3-(acetyloxy)-2,3-dihydro-2-(4-methoxyphenyl)-5-[2-(dimethylamino)ethyl]naphtho[1,2-b]-1,4-thiazepin-4(5H)-one], in the test with SH rat, the “Systolic Blood Pressure (SBP) in the SH rat, SBP (Δ mm Hg)” value is given as -67 ± 7 mm Hg and the Duration is 19 h. The IC50 with Guinea Pig Ileum is 1.3 µM.

As to `COc1ccc([C@@H]2Sc3c(ccc4ccccc34)N(CCN(C)C)C(=O)[C@@H]2O)cc1` [B, (+)-cis-5-[2-(dimethylamino)ethyl]-2,3-dihydro-3-hydroxy-2-(4-methoxyphenyl)naphtho[1,2-b]-1,4-thiazepin-4(5H)-one], in the test on SH rat, the “Systolic Blood Pressure (SBP) in the SH rat, SBP (Δ mm Hg)” value is -63 ± 9 mm Hg and the Duration was 24 h. The IC50 in the test with Guinea Pig Ileum came out at 1.1 µM.

As for `COc1ccc([C@@H]2Sc3c(ccc4ccccc34)N(CCN(C)C)C(=O)[C@@H]2O)cc1` [E, (-)-cis-2,3-dihydro-3-hydroxy-2-(4-methoxyphenyl)-5-[2-(dimethylamino)ethyl]naphtho[1,2-b]-1,4-thiazepin-4(5H)-one], the IC50 in the test with Guinea Pig Ileum is 56 µM.

The term IC50 denotes the concentration that inhibits the measured activity by half.
